Measured values published in US20220401574A1, “CARDIOPROTECTIVE MICROBUBBLE-LIPOSOMAL DRUG COMPLEXES” (UNIVERSITY OF PITTSBURGH - OF THE COMMONWEALTH SYSTEM OF …, priority 2019, published 2022).
Marks after values point to notes of the source that are not given here.

Experiments:
[1] = tested on: heart tissue; assay: Cardiac histopathology (H&E) and fibrosis analysis (Sirius red/fast green); assay type: in vivo, mice; details: for myocardial fibrosis / collagen deposition: Sirius red/fast green staining
Experimental: Routine hematoxylin and eosin (H&E) stained heart tissue slides were made for histologic examination. Sirius red/fast green staining was performed on heart tissue sections post-fixed in paraffin blocks. Twenty-three (23) Images were obtained on an Olympus IX81 microscope interfaced with a digital CCD camera (Olympus DP71) and quantitated using ImageJ 1.5 software.

[2] = parameters: risk of cardiotoxicity occurrence: dose or concentration left out as unconfirmed; details: cited from earlier work
[3] = tested on: MCA205 sarcoma; assay: In vivo tumor treatment: tumor growth and survival; parameters: species or system mice; details: for Median survival time ± standard deviation: US Pulse 3 for MB formulations
Experimental: This example provides in vivo studies were performed using the Pulse 3 US regime. […] Treatments were infused over 15 min via internal jugular indwelling catheter on Days 0, 3, 7, 10.
Murine sarcoma model. The animal protocols were approved by the University of Pittsburgh Institutional Animal Care and Use Committee and conform to the Policy on Human Care and Use of Laboratory Animals. Female mice were used due to their susceptibility to Dox cardiotoxicity. Lipshultz et al., “Assessment of dexrazoxane as a cardioprotectant in doxorubicin-treated children with high-risk acute lymphoblastic leukaemia: long-term follow-up of a prospective, randomised, multicentre trial” Lancet Oncol. […] Eight-week-old female C57BL/6 mice were obtained from Jackson lab and housed in the animal facility of the Division of Laboratory Animal Resources at the University of Pittsburgh.
The pulse was repeated 500 times, with the pulse train repeated every 2.5 s to allow MB reperfusion into the target area. The overall duty cycle was 10%. The spatial peak temporal average intensity was 0.16 W/cm^2. The US treatment was continued for approximately 3-5 minutes after the intravenous MB infusion was completed to achieve complete MB destruction (e.g., ˜12-15 min total sonication time).
Tumor growth was evaluated by high-resolution 3D US imaging of the tumor using automated scanning (Vevo2100, Visualsonics, Ontario, Canada) at 21 MHz with a 0.2-mm step size between cross-sections. Tumor cross-sections were manually outlined and tumor volumes were calculated from 3D reconstructions of the outlined area. This technique can measure subcutaneous tumors with an irregular shape with an accuracy of ±20 mm^3. Tumor growth over time was fit to an exponential curve (y)=X0·e^kt, where X0 represents initial tumor volume, and t stands for time in days. Doubling times (DT) were calculated as DT=(Ln2)/k.
Treatments with various Dox formulations commenced when tumor volume reached 40-90 mm^3. The mice were randomly assigned to 1 of 6 treatment groups.
On the first day of treatment, the tumor bearing mice were anesthetized with 2% isoflurane in oxygen and an indwelling catheter was placed in the internal jugular vein to facilitate multiple intravenous infusions over time. See, FIG. 1B. […] See, FIG. 1B.
Tumor volume and cardiac function were serially evaluated for up to 42 days using ultrasound imaging. Echocardiography was performed every 7 days after the 1st treatment. On day 42, or if tumor volume exceeded 1,600 mm^3 before day 42, the mice were euthanized under deep anesthesia (5% isofluorane). Tumor and heart were harvested, washed with cold saline, then were cryopreserved or fixed with 10% formalin overnight, embedding in paraffin block and sectioning for further histology analysis.

[4] = tested on: caspase-3; assay: Caspase-3 activity assay in heart tissue; assay type: in vivo, mice; details: heart tissue homogenate
Experimental: Heart tissue was washed twice with cold PBS and lysed in lysis buffer (50 mM HEPES, pH 7.4, with 5 Mm CHAPS, and 5 mM DTT). Tissue lysates were centrifuged at 10,000 rcf for 15 min, and the total protein concentration was measured using a BCA assay kit (Thermo Fisher Scientific, MA). Caspase-3 activity assay was performed in triplicate in 96-well plates. For each protease assay, 200 μL assay buffer (100 mM HEPES, pH 7.2, 10% sucrose, 0.1% CHAPS, 1 Mm Na-EDTA, and 2 mM DTT) containing 50 μM Ac-DEVD-AMC (Enzo life, Farmingdale, N.Y.) was incubated with 50 μg lysate protein at 37° C. for 1 h.
Caspase-3 activity was measured by AMC liberation from Ac-DEVD-AMC substrate at 380/460 nm using a plate reader (Beckman Coulter, DTX-880 Multimode detector, Brea, Calif.). Relative fluorescence of substrate control was subtracted as background emission. Free AMC (Enzo life, NY) was used to make the standard curve: […]

[5] = tested on: MCA 205 murine sarcoma cells; assay: Long-term cell viability, alamaBlue assay; assay type: cell-based; details: without US, 24, 48, 72 h
Experimental: (§1) MCA 205 murine sarcoma cells (generously provided by Dr. Walter J. Storkus at the University of Pittsburgh School of Medicine) were cultured in RPMI-1640 (Lonza, Biowhittaker, Basel, Switzerland), supplemented with 10% heat deactivated fetal bovine serum (FBS) and 1% penicillin-streptomycin at 37° C., and sub-cultured every 2 days and used before 8 passage.
Control conditions included cells mixed with free Dox, LDox, DoxLPX, ELPX without US treatment and untreated cells. After 1 h incubation, the wells were replaced with 500 μL fresh media. At 24, 48, and 72 h, the cells were incubated in 500 μL media containing 50 μg/mL alamaBlue® for 1 h. Thereafter, 100 μL media in each well was sampled and assayed on a plate reader (Beckman Coulter, DTX-880 Multimode detector, Brea, Calif.) at a wavelength of λex=530 nm and λem=590 nm. The same volume of media containing alamaBlue® was added in empty wells in the same 24-well plate to be used as the baseline absorbance. The percentage of viability at 24, 48, and 72 h was calculated by normalizing to that of untreated cells. As Dox-induced cytotoxicity takes about 48 hours to manifest, acute cytotoxicity (trypan blue assay) was attributed to ultrasound-microbubble interaction. […]

[6] = tested on: left ventricular function; assay: Assessment of cardiac function by serial echocardiography; assay type: in vivo, mice
Experimental: Two-dimensional short-axis images were obtained using a high-resolution Micro-Ultrasound system (Vevo 2100, VisualSonics Inc.) in B-mode and M-mode from parasternal short-axis view. […] LV mass index was calculated as LV mass/mouse body weight (g) on the day of measurement. […] Tumor volume and cardiac function were serially evaluated for up to 42 days using ultrasound imaging. Echocardiography was performed every 7 days after the 1st treatment. […] Ejection fraction […] and left ventricular (LV) mass index data within each treatment group were compared to that on day 0 (baseline) within the group using a two-tail t-test. The percentage of mice with changes in ejection fraction, fractional shortening and LV mass index, categorized as mild, moderate or severe, was compared between groups using Chi-square test, and differences between two groups were compared using Fisher's exact test. Kaplan-Meier survival curves were compared between groups using the log-rank test for trend.

[7] = tested on: MCA 205 murine sarcoma cells; assay: Acute cell viability, trypan blue exclusion assay; assay type: cell-based; details: 8 μg/mL, without US
Experimental: as §1
MCA 205 cells were suspended (5×10^4 cells in 500 μL media) in capped sterile polystyrene tubes. One of the following formulations was added to the tubes: DoxLPX, LDox, free Dox, ELPX, LDox+MB (e.g, unconjugated LDox and MB). […] Cell viability was evaluated 30 min later using the trypan blue exclusion assay where controls comprised identical tubes not exposed to US.
Live cells and total cell number were counted on a hemocytometer using an inverted microscope (Motic AE21, Scientific Instrument Company, Campbell, Calif.). Acute cell viability was quantified as the number of the live cells (trypan blue negative) divided by the total cell numbers. Each treatment condition was repeated independently three times.

[8] = cited from earlier work
[9] = Biodistribution assessment with Cy5.5 as Dox analog; assay type: in vivo, mice; details: organs harvested 3.5 hours after treatment, imaging
From the text: To assess bio-distribution of the drug post ultrasound treatment, Cy5.5 was used as a fluorescent Dox analog, injected i.v. as: Cy5.5-NH2, liposomal Cy5.5, liposomal Cy5.5+MB, Cy5.5LPX, and mice were euthanized 3.5 hrs later. Blood, tumor, spleen, kidney, liver, heart, lung, brain, skin on the back, muscle, femur (bone), and foot were imaged post-mortem and measured using a Xenogen IVIS 200 imaging system.
This example determines the fate of liposomal lipids and Dox after in vivo delivery. […]
To further quantify the distribution of Cy5.5-NH2, tumor, spleen, kidney, liver, heart, and lung were wet-weighed and […] of each tissue specimen were homogenized in 200 μL lysis buffer (50 mM HEPES, 50 mM NaCl, 1% Triton X-100, 5 mM EDTA, and 15 mM DTT) using a sonicator homogenizer (Sonicator Ultrasonic Processor XL, Misonix, Farmingdale, N.Y.) in Eppendorf tubes immersed in an ice-water. […]
50 μL supernatant of each specimen was added in black 384 well plates. Cy5.5-NH2 fluorescence intensity of 3 parallel samples of each organ was determined at Ex/Em 680/710 nm using a plate reader (Infinite 200 PRO, Tecan, Männedorf, Switzerland). […]

In the case of `COc1cccc2c1C(=O)c1c(O)c3c(c(O)c1C2=O)C[C@@](O)(C(=O)CO)C[C@@H]3O[C@H]1C[C@H](N)[C@H](O)[C@H](C)O1` [Dox, Doxorubicin], the “myocardial fibrosis / collagen deposition” value [1] was “significantly more areas of patchy myocardial interstitial fibrosis and perivascular fibrosis”, the “myocardial fibrosis / collagen deposition” value ([1]; listed as free Dox) was “induced moderate myocardial interstitial and perivascular fibrosis” and the “histological damage to heart tissue” value ([1]; hematoxylin/eosin staining, accumulative dosage 20 mg/kg) was “disorganization of myofibrillar arrays (first left panel of Dox group) and focal cytoplasmic vacuolization”. The “risk of cardiotoxicity occurrence” value ([2]; clinically) was 26%, the “maximal tolerated cumulative dose” value ([2]; in vivo) was 400-550 mg/m2 and the “Median survival time ± standard deviation” value ([3]; 5 mg/kg equiv. Dox i.v., 4 treatments) was 28.0 ± 7.5 days. The “Median survival time ± standard deviation” value ([3]; 5 mg/kg equiv. Dox i.v., 4 treatments, listed as free Dox) was 28 days, the “prolongation of median survival” value ([3]; as compared to controls) was 14% and the “tumor volume as % of original (baseline) tumor volume” value ([3]; by Day 17.5) was 610%. The Tumor doubling time ([3]; exponential fit of tumor volume, 5 mg/kg equiv. Dox i.v., 4 treatments) was 7.1 ± 1.0**^,# Day, the “caspase-3 activity in cardiac tissue” value [4] was “higher than that in mice treated with DoxLPX+US” and the “cytotoxicity / cell viability” value ([5]; listed as Free Dox) was “more cytotoxicity than DoxLPX in the absence of US”. For the same molecule, the “cytotoxicity / cell viability” value ([5]; listed as free Dox) was “highest cytotoxicity at 24, 48, and 72 h”, the “LVIDs, LVIDd change” value ([6]; Day 14 or Day 21 vs. Day 0) was “Significant increases” and the “mice with severely increased LV mass index” value ([6]; Day 21 vs. Day 0) was 20.0%. For the same molecule, the “mice with severe reduction in EF” value ([6]; day 21) was 40%, the “mice with severe reduction in FS” value ([6]; day 21) was 30% and the “LV mass index change” value ([6]; vs. Day 0) was “significantly increased LV mass index on day 14”. The “LV mass over time” value ([6]; vs. baseline, up to Day 21) was “significantly greater than baseline by Day 14”, the “ejection fraction (EF) and fractional shortening (FS) over time” value ([6]; vs. baseline, up to Day 21) was “progressive decline in ejection fraction (EF) and fractional shortening (FS)” and the cell membrane integrity [7] was “did not change the cell membrane integrity”.
In the case of `C[N+]1=C(/C=C/C=C/C=C2/N(CCCCCC(=O)NCCCCCCN)c3ccc4ccccc4c3C2(C)C)C(C)(C)c2c1ccc1ccccc21.Cl.[Cl-]` [Cy5.5-NH2, Cyanine5.5-amine], the water solubility [8] is listed as “moderate water solubility”, the “acid dissociation constant (pKa)” value ([8]; primary amine group) is listed as “higher than 7” and the “ex vivo Cy5.5 fluorescence in organs” value [9] is listed as “noticeable Cy5.5 fluorescence in the heart and skeletal muscle”.
